Tests used:
rice (Oryza sativa L.) = assay: Test Example 1: foliar treatment, growth inhibition rate, rice; type: in vivo; settings: visually observed 17th to 23rd day after application
Procedure, shortened: (§1)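 Post-emergence foliar spray, pot test; WP/EC formulation in water at 500 L/ha, + 0.1 vol % spreader; leaf stage at treatment: corn 2.0–3.5, green foxtail 1.0–3.0, rice 1.0–2.5, wheat 1.7–3.4; visual % inhibition at 17–23 DAT (0 = untreated, 100 = dead).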

[1] = test system: soybean (Glycine max Merr.); assay: Test Example 1: foliar treatment, growth inhibition rate, soybean; type: in vivo; settings: visually observed 17th to 23rd day after application
Procedure, shortened: (§2)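 Visual scoring of growth inhibition, 0% (untreated) to 100% (complete kill), on days 17–23 following post-emergence spray of formulated compound in water (500 L/ha, 0.1 vol % spreader); plants treated at set leaf stages, e.g. corn 2.0–3.5, wheat 1.7–3.4.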

[2] = test system: greenfoxtail (Setaria viridis L.); assay: Test Example 1: foliar treatment, growth inhibition rate, greenfoxtail; type: in vivo; settings: visually observed 17th to 23rd day after application
Procedure, shortened: as §1

[3] = test system: barnyardgrass (Echinochloa crus-galli L.); assay: Test Example 1: foliar treatment, growth inhibition rate, barnyardgrass; type: in vivo; settings: visually observed 17th to 23rd day after application
Procedure, shortened: as §2

greenfoxtail = assay: Test Example 2: soil application on the day after sowing, growth inhibition rate, greenfoxtail; type: in vivo, Setaria viridis L.; settings: 250 g/ha active ingredient, observed on 19th to 24th day
Procedure, shortened: (§3)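 Seeds were sown in upland field soil in pots, and on the following day compounds formulated as wettable powders or emulsifiable concentrates were diluted in water (500 liter per hectare) and sprayed onto the soil at prescribed active-ingredient doses. Growth was scored visually 19–24 days later, 0 = untreated to 100% = complete kill.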

[4] = test system: redroot pigweed (Amaranthus retroflexus L.); assay: Test Example 1: foliar treatment, growth inhibition rate, redroot pigweed; type: in vivo; settings: visually observed 17th to 23rd day after application
Procedure, shortened: as §2

corn (Zea mays L.) = assay: Test Example 1: foliar treatment, growth inhibition rate, corn; type: in vivo; settings: visually observed 17th to 23rd day after application
Procedure, shortened: as §1

wheat = assay: Test Example 2: soil application on the day after sowing, growth inhibition rate, wheat; type: in vivo, Triticum spp.; settings: 250 g/ha active ingredient, observed on 19th to 24th day
Procedure, shortened: as §3

prickly sida = assay: Test Example 2: soil application on the day after sowing, growth inhibition rate, prickly sida; type: in vivo, Sida spinosa L.; settings: 250 g/ha active ingredient, observed on 19th to 24th day
Procedure, shortened: as §3

velvetleaf = assay: Test Example 2: soil application on the day after sowing, growth inhibition rate, velvetleaf; type: in vivo, Abutilon theophrasti MEDIC.; settings: 250 g/ha active ingredient, observed on 19th to 24th day
Procedure, shortened: as §3

soybean = assay: Test Example 2: soil application on the day after sowing, growth inhibition rate, soybean; type: in vivo, Glycine max Merr.; settings: 250 g/ha active ingredient, observed on 19th to 24th day
Procedure, shortened: as §3

[5] = test system: velvetleaf (Abutilon theophrasti MEDIC.); assay: Test Example 1: foliar treatment, growth inhibition rate, velvetleaf; type: in vivo; settings: visually observed 17th to 23rd day after application
Procedure, shortened: as §2

redroot pigweed = assay: Test Example 2: soil application on the day after sowing, growth inhibition rate, redroot pigweed; type: in vivo, Amaranthus retroflexus L.; settings: 250 g/ha active ingredient, observed on 19th to 24th day
Procedure, shortened: as §3

corn = assay: Test Example 2: soil application on the day after sowing, growth inhibition rate, corn; type: in vivo, Zea mays L.; settings: 250 g/ha active ingredient, observed on 19th to 24th day
Procedure, shortened: as §3

barnyardgrass = assay: Test Example 2: soil application on the day after sowing, growth inhibition rate, barnyardgrass; type: in vivo, Echinochloa crus-galli L.; settings: 250 g/ha active ingredient, observed on 19th to 24th day
Procedure, shortened: as §3

crabgrass = assay: Test Example 2: soil application on the day after sowing, growth inhibition rate, crabgrass; type: in vivo, Digitaria sanguinalis L.; settings: 250 g/ha active ingredient, observed on 19th to 24th day
Procedure, shortened: as §3

[6] = test system: prickly sida (Sida spinosa L.); assay: Test Example 1: foliar treatment, growth inhibition rate, prickly sida; type: in vivo; settings: visually observed 17th to 23rd day after application
Procedure, shortened: as §2

rice = assay: Test Example 2: soil application on the day after sowing, growth inhibition rate, rice; type: in vivo, Oryza sativa L.; settings: 250 g/ha active ingredient, observed on 19th to 24th day
Procedure, shortened: as §3

[7] = test system: crabgrass (Digitaria sanguinalis L.); assay: Test Example 1: foliar treatment, growth inhibition rate, crabgrass; type: in vivo; settings: visually observed 17th to 23rd day after application
Procedure, shortened: as §2

wheat (Triticum spp.) = assay: Test Example 1: foliar treatment, growth inhibition rate, wheat; type: in vivo; settings: visually observed 17th to 23rd day after application
Procedure, shortened: as §1

Row | SMILES | Growth inhibition rate (%) Rice (rice (Oryza sativa L.); 31 g/ha active ingredient) [%] | Growth inhibition rate (%) Soybean ([1]; 31 g/ha active ingredient) [%] | Growth inhibition rate (%) Greenfoxtail ([2]; 31 g/ha active ingredient) [%] | Growth inhibition rate (%) Barnyardgrass ([3]; 31 g/ha active ingredient) [%] | Growth inhibition rate (%) Greenfoxtail (greenfoxtail) [%] | Growth inhibition rate (%) redroot pigweed ([4]; 31 g/ha active ingredient) [%] | Growth inhibition rate (%) Corn (corn (Zea mays L.); 31 g/ha active ingredient) [%] | Growth inhibition rate (%) Wheat (wheat) [%] | Growth inhibition rate (%) Prickly sida (prickly sida) [%] | Growth inhibition rate (%) Velvetleaf (velvetleaf) [%] | Growth inhibition rate (%) Soybean (soybean) [%] | Growth inhibition rate (%) Velvetleaf ([5]; 31 g/ha active ingredient) [%] | Growth inhibition rate (%) redroot pigweed (redroot pigweed) [%] | Growth inhibition rate (%) Corn (corn) [%] | Growth inhibition rate (%) Barnyardgrass (barnyardgrass) [%] | Growth inhibition rate (%) Crabgrass (crabgrass) [%] | Growth inhibition rate (%) Prickly sida ([6]; 31 g/ha active ingredient) [%] | Growth inhibition rate (%) Rice (rice) [%] | Growth inhibition rate (%) Crabgrass ([7]; 31 g/ha active ingredient) [%] | Growth inhibition rate (%) Wheat (wheat (Triticum spp.); 31 g/ha active ingredient) [%] | further results
1 | CCOC(=O)c1c(S(C)(=O)=O)ccc(C(=O)c2cnn(CC)c2OC(=O)SCC)c1C [compound 61] | 90 | 80 | 100 | 98 | 100 | 100 | 50 | 30 | 80 | 90 | 20 | 95 | 100 | 0 | 100 | 100 | 95 | 85 | 98 | 60 | 
2 | CCCSC(=O)Oc1c(C(=O)c2ccc(S(C)(=O)=O)c(C(=O)OC)c2C)cnn1CC [compound 85] | 95 | 98 | 100 | 98 | 100 | 95 | 10 | 0 | 100 | 100 | 50 | 98 | 98 | 10 | 100 | 100 | 98 | 100 | 98 | 60 | 
3 | CCCCCCCc1c(S(C)(=O)=O)ccc(C(=O)c2cnn(C)c2OC(=O)SCC)c1C [compound 225] | 0 | 50 | 20 | 30 | 0 | 0 | 0 | 0 | 0 | 0 | 0 | 0 | 30 | 0 | 0 | 0 | 0 | 0 | 0 | 0 | 
4 | CCSC(=O)Oc1c(C(=O)c2ccc(S(C)(=O)=O)c(COC3CCOC3)c2C)cnn1C (stereo not drawn) [compound 223] | 70 | 100 | 90 | 100 | 70 | 90 | 0 | 0 | 60 | 80 | 0 | 95 | 90 | 0 | 70 | 100 | 70 | 40 | 100 | 0 | 
5 | CCSC(=O)Oc1c(C(=O)c2ccc(S(C)(=O)=O)c(OC)c2Cl)cnn1C [compound 214] |  |  |  |  | 100 |  |  | 0 | 90 | 90 | 20 |  | 90 | 0 | 100 | 100 |  | 100 |  |  | Growth inhibition rate (%) Rice (rice (Oryza sativa L.); 63 g/ha active ingredient): 90%; Growth inhibition rate (%) Soybean ([1]; 63 g/ha active ingredient): 100%; Growth inhibition rate (%) Greenfoxtail ([2]; 63 g/ha active ingredient): 90%; Growth inhibition rate (%) Barnyardgrass ([3]; 63 g/ha active ingredient): 98%; Growth inhibition rate (%) redroot pigweed ([4]; 63 g/ha active ingredient): 100%; Growth inhibition rate (%) Corn (corn (Zea mays L.); 63 g/ha active ingredient): 0%; Growth inhibition rate (%) Velvetleaf ([5]; 63 g/ha active ingredient): 80%; Growth inhibition rate (%) Prickly sida ([6]; 63 g/ha active ingredient): 70%; Growth inhibition rate (%) Crabgrass ([7]; 63 g/ha active ingredient): 95%; Growth inhibition rate (%) Wheat (wheat (Triticum spp.); 63 g/ha active ingredient): 0%
6 | CCC(C)SC(=O)Oc1c(C(=O)c2ccc(S(C)(=O)=O)c(C(=O)OC)c2C)cnn1C (stereo not drawn) [compound 88] | 95 | 95 | 100 | 98 | 98 | 95 | 20 | 0 | 95 | 100 | 0 | 95 | 100 | 0 | 100 | 100 | 90 | 95 | 95 | 10 | 

Source: US8030498B2, “Benzoylpyrazole compounds and herbicides containing them” (Ishihara Sangyo Kaisha, Ltd., priority 2005, dated 2011)
